Laboratory results taken from patent US7902227B2, “C-7 isoxazolinyl quinolone / naphthyridine derivatives useful as antibacterial agents” (Janssen Pharmaceutica NV., priority 2008, dated 2011).
In brackets after ≈: the same amount, converted by molar mass.

Experiments:
Format in all cases: cell-based
[1] = test system: strain C, fluoroquinolone-resistant clinical isolate of Streptococcus pneumoniae; experiment: In vitro antibacterial activity (MIC), microdilution broth method (NCCLS), strain C; conditions: read-out: In vitro Antibacterial Activity MIC, C
Method: (§1) Minimal inhibitory concentration (MIC) has been an indicator of in vitro antibacterial activity widely used in the art. The in vitro antimicrobial activity of representative compounds of the present invention was determined by the microdilution broth method following the test method from the National Committee for Clinical Laboratory Standards (NCCLS). This method is described in the NCCLS Document M7-A4, Vol. 17, No. 2, “Methods for Dilution Antimicrobial Susceptibility Test for Bacteria that Grow Aerobically—Fourth Edition”, which is incorporated herein by reference.
(§2) In this method two-fold serial dilutions of drug in cation adjusted Mueller-Hinton broth are added to wells in microdilution trays. The test organisms are prepared by adjusting the turbidity of actively growing broth cultures so that the final concentration of test organism after it is added to the wells is approximately 5×10^4 CFU/well.
(§3) Following inoculation of the microdilution trays, the trays are incubated at 35° C. for 16-20 hours and then read. […] The amount of growth in the wells containing the test compound is compared with the amount of growth in the growth-control wells (no test compound) used in each tray. As set forth in Table 4, representative compounds of the present invention were tested against a variety of pathogenic bacteria resulting in a range of activities depending on the organism tested.

[2] = test system: Streptococcus pneumoniae ATCC 49619; experiment: In vitro antibacterial activity (MIC), microdilution broth method (NCCLS), strain E; conditions: ATCC49619, 35° C., 16-20 hours
Method: as §1, §2, §3

[3] = test system: Staphylococcus aureus OC4172; experiment: In vitro antibacterial activity (MIC), microdilution broth method (NCCLS), strain A; conditions: cation adjusted Mueller-Hinton broth, 35° C., 16-20 hours
Method: as §1, §2, §3

[4] = test system: strain D, fluoroquinolone-resistant clinical isolate of Streptococcus pneumoniae; experiment: In vitro antibacterial activity (MIC), microdilution broth method (NCCLS), strain D; conditions: read-out: In vitro Antibacterial Activity MIC, D
Method: as §1, §2, §3

[5] = test system: strain B, fluoroquinolone-resistant clinical isolate of Streptococcus pneumoniae; experiment: In vitro antibacterial activity (MIC), microdilution broth method (NCCLS), strain B; conditions: read-out: In vitro Antibacterial Activity MIC, B
Method: as §1, §2, §3

Structure (SMILES)	MIC [1] [µg/mL]	MIC [2] [µg/mL]	MIC [3] [µg/mL]	MIC [4] [µg/mL]	MIC [5] [µg/mL]
NCC1=NOC2CN(c3nc4c(cc3F)c(=O)c(C(=O)O)cn4C3CC3)CC12 (centres unmarked) [ID No. 201, 7-(3-Aminomethyl-3a,4,6,6a-tetrahydro-pyrrolo[3,4-d]isoxazol-5-yl)-1-cyclopropyl-6-fluoro-4-oxo-1,4-dihydro-[1,8]naphthyridine-3-carboxylic acid]	> 16	4 (≈ 10.3 µM)	0.5 (≈ 1.29 µM)	> 16	> 16
COc1c(N2C[C@@H]3ON=C(c4ccccn4)[C@@H]3C2)c(F)cc2c(=O)c(C(=O)O)cn(C3CC3)c12 (relative stereo) [ID No. 122, 7-[cis-3-(2-pyridyl)-3a,4,6,6a-tetrahydropyrrolo[3,4-d]isoxazol-5-yl]-1-cyclopropyl-8-methoxy-6-fluoro-4-oxo-1,4-dihydroquinoline-3-carboxylic acid]	16 (≈ 34.4 µM)	1 (≈ 2.15 µM)	< 0.12	2 (≈ 4.31 µM)	16 (≈ 34.4 µM)
O=C(O)c1cn(-c2ccc(F)cc2F)c2nc(N3CC4ON=C(CO)C4C3)c(F)cc2c1=O (centres unmarked) [ID No. 107, 1-(2,4-Difluoro-phenyl)-6-fluoro-7-(3-hydroxymethyl-3a,4,6,6a-tetrahydro-pyrrolo[3,4-d]isoxazol-5-yl)-4-oxo-1,4-dihydro-[1,8]naphthyridine-3-carboxylic acid]	> 16	2 (≈ 4.34 µM)	0.12 (≈ 0.261 µM)	> 16	> 16
COc1ccc(C2=NOC3CN(c4nc5c(cc4F)c(=O)c(C(=O)O)cn5C4CC4)CC23)cn1 (centres unmarked) [ID No. 111, 1-Cyclopropyl-6-fluoro-7-[3-(6-methoxypyridin-3-yl)-3a,4,6,6a-tetrahydro-pyrrolo[3,4-d]isoxazol-5-yl]-4-oxo-1,4-dihydro-[1,8]naphthyridine-3-carboxylic acid]	4 (≈ 8.59 µM)	0.5 (≈ 1.07 µM)	0.03 (≈ 0.0645 µM)	2 (≈ 4.3 µM)	8 (≈ 17.2 µM)
O=C(O)c1cn(-c2ccc(F)cc2F)c2nc(N3CC4ON=C(c5ccc(Cl)cc5)C4C3)c(F)cc2c1=O (centres unmarked) [ID No. 101, 7-[3-(4-Chloro-phenyl)-3a,4,6,6a-tetrahydro-pyrrolo[3,4-d]isoxazol-5-yl]-1-(2,4-difluoro-phenyl)-6-fluoro-4-oxo-1,4-dihydro-[1,8]naphthyridine-3-carboxylic acid]	2 (≈ 3.7 µM)	1 (≈ 1.85 µM)	0.06 (≈ 0.111 µM)	4 (≈ 7.4 µM)	1 (≈ 1.85 µM)
O=C(O)c1cn(C2CC2)c2nc(N3CC4ON=C(CO)C4C3)c(F)cc2c1=O (centres unmarked) [ID No. 117, 1-Cyclopropyl-6-fluoro-7-(3-hydroxymethyl-3a,4,6,6a-tetrahydro-pyrrolo[3,4-d]isoxazol-5-yl)-4-oxo-1,4-dihydro-[1,8]naphthyridine-3-carboxylic acid]	16 (≈ 41.2 µM)	8 (≈ 20.6 µM)	0.5 (≈ 1.29 µM)	16 (≈ 41.2 µM)	16 (≈ 41.2 µM)
O=C(O)c1cn(-c2ccc(F)cc2F)c2nc(N3CC4ON=C(c5ccc(C(F)(F)F)nc5)C4C3)c(F)cc2c1=O (centres unmarked) [ID No. 103, 1-(2,4-Difluoro-phenyl)-6-fluoro-4-oxo-7-[3-(6-trifluoromethyl-pyridin-3-yl)-3a,4,6,6a-tetrahydro-pyrrolo[3,4-d]isoxazol-5-yl]-1,4-dihydro-[1,8]naphthyridine-3-carboxylic acid]	> 16	2 (≈ 3.48 µM)	0.25 (≈ 0.434 µM)	4 (≈ 6.95 µM)	8 (≈ 13.9 µM)
